The subject of series [1] is SH-SY5Y. Kind of series: Neuro-antioxidant activity against H2O2-induced oxidative stress in human SH-SY5Y cells assessed as intracellular ROS generation at 10 uM preincubated for 6 hrs followed by H2O2 challenge for 24 hrs by DCFH-DA staining-based fluorescence assay (reference value: 119.61 +/- 5.269%). It counts as functional.
Series [2] deals with SH-SY5Y. Kind of series: Neuro-antioxidant activity against H2O2-induced oxidative stress in human SH-SY5Y cells assessed as intracellular ROS generation at 20 uM preincubated for 6 hrs followed by H2O2 challenge for 24 hrs by DCFH-DA staining-based fluorescence assay (reference value: 119.61 +/- 5.269%). It counts as functional.
Series [3] relates to SH-SY5Y. Description: Neuroprotective activity against amyloid beta (1 to 42 residues) induced cytotoxicity in human SH-SY5Y cells assessed as cell viability at 10 uM pretreated for 3 hrs followed by amyloid beta(1-42) challenge measured after 24 hrs by MTT assay (reference value: 37.53 +/- 1.4%). It counts as functional. The note with it: read-out: Activity. Background: Formazan colour is commonly taken as a measure of viable cells.

The subject of series [4] is SH-SY5Y. Description: Neuroprotective activity against amyloid beta (1 to 42 residues) induced cytotoxicity in human SH-SY5Y cells assessed as cell viability at 50 uM pretreated for 3 hrs followed by amyloid beta(1-42) challenge measured after 24 hrs by MTT assay (reference value: 37.53 +/- 1.4 %). The note with it: read-out: Activity. It counts as functional.
A short description of series [5]: Metal chelating activity assessed as compound-Cu2+ complex formation at 20 uM in presence of CuCl2 after 1 hr by UV-visible spectrophotometric analysis.
The subject of series [6] is SH-SY5Y. Description: Neuroprotective activity against H2O2-induced cytotoxicity in human SH-SY5Y cells assessed as cell viability at 50 uM pretreated for 3 hrs followed by H2O2 challenge measured after 24 hrs by MTT assay (reference value: 42.69 +/- 0.8%). It counts as functional. The settings on record: read-out: Activity.
The test system of series [7] is SH-SY5Y. Description: Neuro-antioxidant activity against H2O2-induced oxidative stress in human SH-SY5Y cells assessed as intracellular ROS generation at 1 uM preincubated for 6 hrs followed by H2O2 challenge for 24 hrs by DCFH-DA staining-based fluorescence assay (reference value: 119.61 +/- 5.269%). It counts as functional.
The subject of series [8] is PC-12. Description: cells. It counts as functional. The note with it: Rattus norvegicus.
The subject of series [9] is SH-SY5Y. Description: Neuro-antioxidant activity against H2O2-induced oxidative stress in human SH-SY5Y cells assessed as intracellular ROS generation at 5 uM preincubated for 6 hrs followed by H2O2 challenge for 24 hrs by DCFH-DA staining-based fluorescence assay (reference value: 119.61 +/- 5.269%). It counts as functional.
The subject of series [10] is PC-12. Kind of series: cells. It counts as functional. The settings on record: Rattus norvegicus. This is another data set of the same source.
The subject of series [11] is SH-SY5Y. Kind of series: Neuroprotective activity against H2O2-induced cytotoxicity in human SH-SY5Y cells assessed as cell viability at 30 uM pretreated for 3 hrs followed by H2O2 challenge measured after 24 hrs by MTT assay (reference value: 42.69 +/- 0.8%). It counts as functional. The settings on record: read-out: Activity.
Series [12] concerns PC-12. Description: cells. It counts as functional. The settings on record: Rattus norvegicus. This is another data set of the same source.
The nature of series [13]: Metal chelating activity assessed as compound-Al3+ complex formation at 20 uM in presence of AlCl3 after 1 hr by UV-visible spectrophotometric analysis.
A short description of series [14]: Metal chelating activity assessed as compound-Mg2+ complex formation at 20 uM in presence of MgCl2 after 1 hr by UV-visible spectrophotometric analysis.
For series [15], the system named is SH-SY5Y. Description: Neuroprotective activity against amyloid beta (1 to 42 residues) induced cytotoxicity in human SH-SY5Y cells assessed as increase in cell viability pretreated for 3 hrs followed by amyloid beta (1 to 42 residues) challenge measured after 24 hrs by MTT assay. It counts as functional, cell-based.
The target in series [16] is Acetylcholinesterase (Electrophorus electricus, UniProt O42275). It counts as ADME.
Acetylcholinesterase, sequence (O42275 whole entry): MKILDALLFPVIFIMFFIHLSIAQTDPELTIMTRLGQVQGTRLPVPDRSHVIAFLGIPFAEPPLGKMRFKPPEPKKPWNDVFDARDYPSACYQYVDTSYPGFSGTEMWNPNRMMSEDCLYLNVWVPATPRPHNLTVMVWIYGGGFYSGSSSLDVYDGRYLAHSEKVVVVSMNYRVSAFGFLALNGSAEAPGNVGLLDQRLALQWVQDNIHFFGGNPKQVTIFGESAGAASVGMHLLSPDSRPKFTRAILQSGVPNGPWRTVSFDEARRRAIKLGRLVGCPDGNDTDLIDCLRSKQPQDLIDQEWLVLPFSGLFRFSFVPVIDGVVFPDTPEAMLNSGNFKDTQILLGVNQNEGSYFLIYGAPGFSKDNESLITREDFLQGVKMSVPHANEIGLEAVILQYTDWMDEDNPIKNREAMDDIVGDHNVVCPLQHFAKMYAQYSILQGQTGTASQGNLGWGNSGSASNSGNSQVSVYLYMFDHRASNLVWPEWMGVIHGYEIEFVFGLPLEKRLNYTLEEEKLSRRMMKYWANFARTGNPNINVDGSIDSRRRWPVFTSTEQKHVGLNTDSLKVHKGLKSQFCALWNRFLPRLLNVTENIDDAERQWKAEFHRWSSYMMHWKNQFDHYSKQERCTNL
Description: Inhibition of electric eel AChE using acetylthiocholine iodide as substrate preincubated for 30 mins followed by substrate addition and measured after 30 mins by Ellman's method
For series [17], the system named is PC-12. Kind of series: cells. It counts as functional. The note with it: Rattus norvegicus. This is another data set of the same source.
Series [18] has as its target Amyloid-beta precursor protein (Homo sapiens) (UniProt P05067). Description: Inhibition of self-mediated amyloid beta (1 to 42) (unknown origin) aggregation assessed as short and thin fibril formation at 100 uM incubated for 48 hrs by transmission electron microscopic method.
Series [19] concerns PC-12. Kind of series: Neuroprotective activity against H2O2 induced cytotoxicity in rat PC12 cells assessed as increase in cell viability pretreated for 3 hrs followed by H2O2 challenge measured after 24 hrs by MTT assay. It counts as functional, cell-based.
Series [20] concerns SH-SY5Y. Description: Neuroprotective activity against amyloid beta (1 to 42 residues) induced cytotoxicity in human SH-SY5Y cells assessed as cell viability at 30 uM pretreated for 3 hrs followed by amyloid beta(1-42) challenge measured after 24 hrs by MTT assay (reference value: 37.53 +/- 1.4 %). It counts as functional. The settings on record: read-out: Activity.
The test system of series [21] is SH-SY5Y. Kind of series: Neuroprotective activity against H2O2-induced cytotoxicity in human SH-SY5Y cells assessed as cell viability at 10 uM pretreated for 3 hrs followed by H2O2 challenge measured after 24 hrs by MTT assay (reference value: 42.69 +/- 0.8%). It counts as functional. The settings on record: read-out: Activity.
Series [22] deals with SH-SY5Y. Description: Neuroprotective activity against H2O2-induced cytotoxicity in human SH-SY5Y cells assessed as increase in cell viability pretreated for 3 hrs followed by H2O2 challenge measured after 24 hrs by MTT assay. It counts as functional, cell-based.
A short description of series [23]: Metal chelating activity assessed as compound-Fe2+ complex formation at 20 uM in presence of FeSO4 after 1 hr by UV-visible spectrophotometric analysis.
Series [24] in a line: Metal chelating activity assessed as compound-Zn2+ complex formation at 20 uM in presence of ZnCl2 after 1 hr by UV-visible spectrophotometric analysis.
For series [25], the target named is Cholinesterase (Equus caballus) (UniProt P81908). Kind of series: Mixed-type inhibition of equine serum BuChE up to 8 uM using varying levels of S-butyrylthiocholine iodide as substrate preincubated for 30 mins followed by substrate addition and measured after 30 mins by Lineweaver-Burk plot analysis.
Cholinesterase (Equus caballus), sequence (P81908 whole entry): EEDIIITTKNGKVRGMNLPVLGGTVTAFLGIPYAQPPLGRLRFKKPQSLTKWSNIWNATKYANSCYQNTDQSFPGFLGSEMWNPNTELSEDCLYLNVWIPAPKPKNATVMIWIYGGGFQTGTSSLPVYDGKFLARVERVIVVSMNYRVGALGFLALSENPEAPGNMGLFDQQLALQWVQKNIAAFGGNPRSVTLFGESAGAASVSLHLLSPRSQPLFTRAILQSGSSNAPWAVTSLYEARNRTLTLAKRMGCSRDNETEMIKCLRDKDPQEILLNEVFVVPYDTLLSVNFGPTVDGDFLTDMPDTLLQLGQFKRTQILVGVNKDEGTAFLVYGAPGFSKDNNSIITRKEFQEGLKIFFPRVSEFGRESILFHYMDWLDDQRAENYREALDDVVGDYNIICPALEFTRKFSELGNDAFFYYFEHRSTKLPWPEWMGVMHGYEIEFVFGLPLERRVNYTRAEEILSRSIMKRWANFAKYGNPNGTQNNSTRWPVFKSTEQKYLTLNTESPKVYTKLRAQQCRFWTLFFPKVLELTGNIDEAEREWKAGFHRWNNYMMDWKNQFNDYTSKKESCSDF
The nature of series [26]: Metal chelating activity assessed as mole fraction of compound required to show 1:1 stoichiometry for compound-Cu2+ complex at 20 uM after 1 hr by UV-Vis absorption spectrophotometric method.
For series [27], the system named is PC-12. Kind of series: cells. It counts as functional. The settings on record: Rattus norvegicus. This is another data set of the same source.
Series [28] can be described thus: n-Octanol-phosphate buffer partition co-efficient, log P of compound at pH 7.4 incubated for 48 hrs by UV spectrophotometry-based shake-flask method. It counts as physicochemical.
Series [29] has as its system SH-SY5Y. Kind of series: Neuro-antioxidant activity in human SH-SY5Y cells assessed as H2O2-induced increase in intracellular ROS generation at 50 uM preincubated for 6 hrs followed by H2O2 challenge for 24 hrs by DCFH-DA staining-based fluorescence assay relative to control (reference value: 119.61 +/- 5.269%). It counts as functional.
A short description of series [30]: Metal chelating activity assessed as compound-Ca2+ complex formation at 20 uM in presence of CaCl2 after 1 hr by UV-visible spectrophotometric analysis.
Series [31] concerns the target Cholinesterase (Equus caballus, UniProt P81908).
Description: Inhibition of equine serum BuChE using S-butyrylthiocholine iodide as substrate preincubated with enzyme for 30 mins followed by substrate addition and measured after 30 mins by Ellman's method

From ChEMBL document CHEMBL4350991, “Design, synthesis, and biological evaluation of rutacecarpine derivatives as multitarget-directed ligands for the treatment of Alzheimer's disease” (Eur J Med Chem, 2019) come the findings set out here.

pIC50: −log10 of the molar value. Activity calls are given as the source filed them. The calls are words filed in the database; no cut-off is given here.

Cholinesterase, sequence (P81908 whole entry): as above
Amyloid-beta precursor protein (Homo sapiens), sequence (P05067 whole entry): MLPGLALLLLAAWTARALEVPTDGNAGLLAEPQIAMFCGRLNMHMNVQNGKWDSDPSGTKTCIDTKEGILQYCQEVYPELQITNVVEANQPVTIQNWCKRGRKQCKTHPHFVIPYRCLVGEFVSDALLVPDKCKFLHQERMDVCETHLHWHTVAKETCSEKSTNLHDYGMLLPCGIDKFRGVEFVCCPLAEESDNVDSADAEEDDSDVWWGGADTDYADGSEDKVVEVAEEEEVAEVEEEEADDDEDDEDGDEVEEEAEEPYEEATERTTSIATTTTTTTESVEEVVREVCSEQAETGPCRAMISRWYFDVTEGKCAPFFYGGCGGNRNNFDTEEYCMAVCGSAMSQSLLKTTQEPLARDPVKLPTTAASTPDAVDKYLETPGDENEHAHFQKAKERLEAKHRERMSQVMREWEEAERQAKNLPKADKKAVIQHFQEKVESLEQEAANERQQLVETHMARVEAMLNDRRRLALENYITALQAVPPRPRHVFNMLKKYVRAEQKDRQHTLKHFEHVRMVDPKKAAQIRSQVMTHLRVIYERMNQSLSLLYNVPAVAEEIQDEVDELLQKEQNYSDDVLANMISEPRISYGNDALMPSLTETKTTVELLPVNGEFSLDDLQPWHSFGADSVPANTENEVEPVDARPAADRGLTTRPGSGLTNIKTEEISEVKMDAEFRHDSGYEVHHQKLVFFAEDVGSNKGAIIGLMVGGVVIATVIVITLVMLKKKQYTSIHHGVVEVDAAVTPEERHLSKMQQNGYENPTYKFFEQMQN

Regarding `O=c1c2cc(NS(=O)(=O)c3ccccc3OC(F)(F)F)ccc2nc2n1CCc1c-2[nH]c2ccccc12`, the Activity in series [1] is 82.464%; in series [2], 105.494%; in series [7], 83.17%; in [9] it was 84.23%; in [15] it was “Dose-dependent effect”; in series [19], “Dose-dependent effect”. Also, the Activity result is “Dose-dependent effect” in series [22], 1.1 molar ratio in series [26] and 98.502% in [29]. In addition, the figures for the viability at 10 µM in [3], in series [17] and in series [21] were 47.9%, 59.7% and 53.9%, respectively. Besides, the viability at 50 µM in [4] worked out at 64.2%; in series [6], 61.9%; in [27], 63.8%. For the same molecule, in [5], the result was Active. This molecule displayed a viability at 1 µM in [8] of 44.3%. Besides, the viability at 30 µM in [10] came to 59.9%; in series [11] it was 61.7%; in series [20], 57.6%. This molecule also returned a viability at 5 µM in series [12] of 45.3%. For the same molecule, the result in series [13], in [14], in series [23], in series [24] and in [30] was inactive. In addition, the pIC50 (commonly the negative decadic logarithm of the IC50, by convention in mol/L) in series [16] is under 4.00; in series [31] it was 5.44. In addition, the inhibition entry in series [18] and in series [25] was “Active” each time. Further, the logD (as a rule, lipophilicity at a set pH, counting ionised and neutral species) at 48 h in series [28] is 3.62.
`O=c1c2cc(NS(=O)(=O)c3ccc(F)c(Cl)c3)ccc2nc2n1CCc1c-2[nH]c2ccccc12` gave a viability at 1 µM in [8] of 48.1%. The same molecule gave a viability at 30 µM in series [10] of 59.4%. The molecule also yielded a viability at 5 µM in [12] of 50.8%. The values for the pIC50 in series [16] and in series [31] were 4.07 and 5.33, respectively. For the same molecule, in series [17], the viability at 10 µM is 58.1%. In addition, the Activity entry in [19] was “Dose-dependent effect”. In series [27], this molecule returned a viability at 50 µM of 61.1%. Besides, the logD at 48 h in series [28] stood at 2.81.
Take `O=c1c2cc(NS(=O)(=O)c3cc(Cl)cc(Cl)c3)ccc2nc2n1CCc1c-2[nH]c2ccccc12`: the viability at 1 µM in series [8] turned out to be 42.4%. This molecule also returned a viability at 30 µM in series [10] of 59.6%. For the same molecule, in series [12], the viability at 5 µM turned out to be 45.3%. The pIC50 is 4.07 in series [16] and 5.10 in [31]. In series [17], this molecule registered a viability at 10 µM of 47.9%. Further, the Activity result in series [19] is “Dose-dependent effect”. Also, in series [27], the viability at 50 µM came to 69.5%. The logD at 48 h in [28] came out at 3.21.
